Two compounds from patent US10537571B2, “Pyrimidine FGFR4 inhibitors” (priority 2013, dated 2020) can be followed below.

The subject of this series is HEP3B tumor xenografts. It is filed as in vivo. As to conditions: for comparative tumor growth efficacy: Hep3B.

Structures are written as SMILES. Read-outs that look alike come from different tables or passages of the source.

Take `CCN1CCN(c2ccc(Nc3cc(N(C)C(=O)Nc4c(Cl)c(OC)cc(OC)c4Cl)ncn3)cc2)CC1` [BGJ398]: the “tolerability (health of animals)” value is listed as “did not exhibit poor health” (30 mg/kg orally twice daily) and “poor health of animals” (60 mg/kg orally twice daily, dosing terminated on Day 11). Under “60 mg/kg orally twice daily”, the “comparative tumor growth efficacy” value is given as “efficacy comparable to compound 108”.

In the case of `C=CC(=O)Nc1cc(N2CCN(CC)CC2)ccc1Nc1cc(N(C)C(=O)Nc2c(Cl)c(OC)cc(OC)c2Cl)ncn1` [Compound 108, N-(2-(6-(3-(2,6-Dichloro-3,5-dimethoxyphenyl)-1-methylureido)pyrimidin-4-ylamino)-5-(4-ethylpiperazin-1-yl)-phenyl)acrylamide], the “comparative tumor growth efficacy” value (25, 37.5 or 50 mg/kg i.p. twice daily) is recorded as “more efficacious than BGJ398”.
